Data set [1] has as its system MCC (mouse primary cortical cultures). The experiment in a line: Cytotoxicity dose-response of EDOT monomer with PSS dopant (cell viability). It is filed as cell-based. As to conditions: MCC exposed to as much as 0.01 M EDOT, 0.02M PSS for as long as 72 h. How it is done:
(§1) Materials and Methods: SH-SY5Y neuroblastoma-derived cells were maintained in Dulbecco's Modified-Eagle's Media (DMEM with glucose, with L-glutamine; Gibco/Invitrogen, Carlsbad, Calif.) supplemented with Penn-Strep mixed antibiotic solution (dilute 1:100 in cell media; Gibco/Invitrogen) and 10% fetal bovine serum (FBS; Gibco/Invitrogen). Mouse primary dissociated cortical cultures (MCC) were prepared from embryonic day 18-20 (E18-20) mice. […]
(§2) Cell Viability Assays: Cell viability was assessed using three assays; the Vybrant Live/Dead Assay (Molecular Probes), the MTT cell viability assay (Chemicon, Temecula, Calif.), and immunocytochemistry (ICC) for the apoptosis associated protease, activated caspase 3 (Cell Signaling Technologies, Beverly, Mass.). For Vybrant Live/Dead assay cell quantity, size, and type of nuclear staining intensity were assessed by fluorescence microscopy using 3 different dyes, Hoechst 33342 (labels all cell nuclei but brighter in nuclei of apoptotic cells), YoPro-3 (labels apoptotic cells) and propidium iodide (PI) (labels cells with compromised membrane; apoptotic & necrotic cells). […]

Another data set concerns SY5Y cells. The description is as above. The format is cell-based. As to conditions: SY5Y cells exposed to as much as 0.01 M EDOT, 0.02M PSS for as long as 72 h. How it is done:
as §1, §2

As for `c1scc2c1OCCO2` [EDOT, 3,4-ethylenedioxythiophene], the cell viability result (in data set [1]; in the data set with SY5Y cells) was “at least 75%” throughout.

Values taken from patent publication US9084546B2, “Co-electrodeposited hydrogel-conducting polymer electrodes for biomedical applications” (The Regents of the University of Michigan, priority 2005, dated 2015).
